Assay results published in patent US20250346782A1 (W. L. Gore & Associates, Inc., priority 2022, published 2025).

What was measured:
[1] = Nitric oxide (NO) release, Berkeley nitric oxide test strips (Evaluation Method Ai); type: physicochemical; conditions: PBS, 37° C.
[2] = as above; type: physicochemical; conditions: 37° C.; for delayed release of NO from the coating / time at which steady state concentration of nitrite anion is reached: coating with VDF-HFP fluoropolymer on ePTFE film, PBS; for onset of release of NO from the coating / time at which steady state of NO release / nitrite anion concentration is reached: coating of compound alone on ePTFE film, PBS 10 mM with 100 μM EDTA
Protocol: The ability of a chemical entity as described herein, or surface having a coating comprising a chemical entity as described herein, to release nitric oxide (NO) is assessed using commercially available Berkely nitric oxide test strips (“Berkeley Life Nitric Oxide Saliva Test Strips”). Instructions for use for such test strips are provided with the packaging of the Berkely nitric oxide test strips, and additionally are described in WO2013/023217A1 and WO2014/039794A2 (incorporated herein by reference).The test strips provide a semi-quantitative measure of NO-derived analytes (primarily aqueous nitrite anion) rather than NO itself, because as is known to the art (Ignarro et al., 1993), aqueous NO has a very short half-life of only seconds, whereas aqueous nitrite anion (which derives from aqueous NO) has a half-life of several hours. As such, the nitrite anion is an appropriate surrogate to measure aqueous NO concentrations. The test strips comprise a nitrite detection pad containing dry chemical reagents responsive to different nitric oxide analytes, thereby, indicating concentrations of nitric oxide. The test strips are capable of detecting a concentration range of the nitric oxide analyte from 0 to 400 μmol/L nitrite with visibly distinct intensities of colorimetric sub-ranges expressed as a red colour (i.e., approximately 700 nm wavelength) of increasing intensity, qualitatively corresponding to micromolarity, specifically, but not limited to: 0 μM, 1 μM to 25 μM, 25 μM to 100 μM, 100 μM to 200 μM, 200 μM to 350 μM, and greater than 400 μM nitrite.
The surface having a coating to be assessed is submerged in a test solution of PBS, 10.0 mM, pH 7.4, with 100 μM EDTA. NO concentration is assessed at given timepoints by dipping the test strip in the solution. After 5 seconds, the test strip is removed, the strip is folded over and the sample pad is gently pressed against the test pad and held for 10 seconds. The ends are separated and compared to the Berkeley Test Nitric Oxide Scale, where the visibly distinct colorimetric sub-ranges comprise 6 subjective levels of intensity of red wavelengths (i.e., approximately 700 nm wavelength), corresponding to 0 μM, 25 μM, 100 μM, 200 μM, 350 μM, and 400 μM of nitric oxide-derived analytes, depending upon the qualitative intensity of red subjectively observed by a user. […] As shown in the Examples below, because each strip is assigned to one of the 6 subjective intensity levels (the sixth being no response), the resulting NO release plot has discrete jumps rather than a continuous curve, although in practice continuous release is expected to be occurring.
In separate experiments, chloroform solutions of S-nitrosothiol-containing compound 16 (Example 19) and compound 17 (Example 20) were deposited dropwise onto ePTFE films secured on embroidery hoops, allowing the solvents to evaporate as the solutions were deposited. Once the solvents had evaporated and the resulting coatings were dry, 10 mL of a PBS buffer solution comprising 10 mM phosphate buffered saline with 100 μM EDTA, was poured over the individual coated films in round, polyethylene containers with screw-cap lids and placed in a 37° C. water bath. The PBS buffer solutions were tested periodically for NO release according to Evaluation Method Ai. The NO release profile for the film coated with compound 16 is shown in FIG. 4, and for the film coated with compound 17, in FIG. 5.
In separate experiments, acetone solutions of 50 mg of the S-nitrosothiol-containing compound 16 (Example 19), compound 18 (Example 22), and copolymer 20 (Example 23) were added to individual mixtures of 200 mg of VDF-HFP fluoropolymer in 10 mL of acetone. The green mixtures were then poured onto 3-inch disks of ePTFE films secured on embroidery hoops, and the solvents evaporated under a stream of argon. […]

[3] = Example 30, FIG. 12: silicone coating on ePTFE film
[4] = coating with VDF-HFP fluoropolymer on Pebax nylon film
[5] = coating with VDF-HFP fluoropolymer on ePE film
[6] = coating with VDF-HFP fluoropolymer on stainless steel foil

onset of release of NO from the coating [1, 3] | time at which steady state concentration of nitrite anion is reached [1, 3] [days] | delayed release of NO from the coating [1, 4] [days] | time at which steady state concentration of nitrite anion is reached [1, 4] [days] | delayed release of NO from the coating [1, 5] [days] | time at which steady state concentration of nitrite anion is reached [1, 5] [days] | delayed release of NO from the coating [1, 6] [days] | time at which steady state concentration of nitrite anion is reached [1, 6] [days] | delayed release of NO from the coating [2] [days] | time at which steady state concentration of nitrite anion is reached [2] [days] | Structure (SMILES) | onset of release of NO from the coating [2] | time at which steady state of NO release / nitrite anion concentration is reached [2] [days]
immediate first release | 7 | 4 | 13 | 2 | 15 | 9 | 14 | 2 | 12 | CC(C)(SN=O)C(NC(=O)c1cc(C(=O)NC(C(=O)NCc2ccccc2)C(C)(C)SN=O)cc(C(=O)NC(C(=O)NCc2ccccc2)C(C)(C)SN=O)c1)C(=O)NCc1ccccc1 (stereo not shown) [Compound 18, S,S′,S″-(((benzene-1,3,5-tricarbonyl)tris(azanediyl))tris(4-(benzylamino)-2-methyl-4-oxobutane-3,2-diyl)) trinitrothioite] | – | –
– | – | – | – | – | – | – | – | – | – | CC(C)(SN=O)C(NC(=O)CCCCC(=O)NC(C(=O)Nc1ccccc1)C(C)(C)SN=O)C(=O)Nc1ccccc1 (stereo not shown) [Compound 17, S,S′-((adipoylbis(azanediyl))bis(2-methyl-4-oxo-4-(phenylamino)butane-3,2-diyl)) dinitrothioite] | immediate release | 7
– | – | – | – | – | – | – | – | 2 | 8 | CC(C)(SN=O)C(NC(=O)CCCCC(=O)NC(C(=O)NCc1ccccc1)C(C)(C)SN=O)C(=O)NCc1ccccc1 (stereo not shown) [Compound 16] | immediate release | 5
